Measurements reported in paper PMC5497837 (Journal of basic and clinical physiology and pharmacology, 2016).

Target: CB1 cannabinoid receptor (CB1R) (Mus musculus, UniProt P47746)
Experiment: inhibition of forskolin-activated cAMP accumulation in N18TG2 cells
Assay type: cell-based

CB1 cannabinoid receptor (CB1R), sequence (P47746 whole entry): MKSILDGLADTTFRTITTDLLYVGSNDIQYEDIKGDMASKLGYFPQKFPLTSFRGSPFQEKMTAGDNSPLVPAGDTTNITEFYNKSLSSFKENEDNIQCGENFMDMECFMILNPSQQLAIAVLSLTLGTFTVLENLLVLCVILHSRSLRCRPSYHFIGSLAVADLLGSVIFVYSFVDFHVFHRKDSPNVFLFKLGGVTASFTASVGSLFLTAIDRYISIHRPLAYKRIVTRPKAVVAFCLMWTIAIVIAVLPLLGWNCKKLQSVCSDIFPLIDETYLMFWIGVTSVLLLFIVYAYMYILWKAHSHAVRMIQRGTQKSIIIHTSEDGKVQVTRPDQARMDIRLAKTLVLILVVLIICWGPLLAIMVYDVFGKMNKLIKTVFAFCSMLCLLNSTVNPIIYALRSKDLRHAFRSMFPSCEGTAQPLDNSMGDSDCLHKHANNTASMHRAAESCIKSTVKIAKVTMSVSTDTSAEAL

Structure (SMILES): CCCCCCC(C)(C)c1ccc([C@@H]2C[C@@H](O)CC[C@H]2CCCO)c(O)c1 [CP55940, (-)-3-[2-hydroxyl-4-(1,1-dimethylheptyl)phenyl]-4-[3-hydroxylpropyl] cyclohexan-1-ol]
- EC50: 3.11 nM
